Laboratory results: patent US10317393B2, “Alkynyl sugar analogs for labeling and visualization of glycoconjugates in cells” (Academia Sinica, priority 2007, dated 2019)

Legend:
Jurkat cells [1] = test: Flow cytometry of cell surface labeling after click with biotin azide probe 6 and fluorescein-conjugated streptavidin; assay type: cell-based, human
Experimental: In another exemplary implementation, a method for labeling fucosylated glycoconjugates at the cell surface is disclosed. In one aspect, Jurkat cells are grown in the presence of derivatized alkynyl Fuc 1. After treatment, cells are subjected to CuAAC (click chemistry) to couple biotinylated azido probe 6 with any alkynyl Fuc-bearing glycoconjugates, and stained with fluorescein-conjugated streptavidin.
Labeling alkynyl Fuc-bearing cell surface glycoconjugates is illustrated in FIGS. 1A, 1B, 1C and 1D. FIGS. 1A, 1B, 1C and 1D show analysis of cells tagged with Fuc analogs analyzed by monitoring fluorescence intensity with flow cytometry after labeling with a biotin azide probe 6 and staining cells with fluorescein-conjugated streptavidin. […] Without being bound by theory, incorporation of the derivatized Fuc analogs into fucosylated glycoconjugates likely occurs via the Fuc salvage pathway.
It is now disclosed in one exemplary implementation of the disclosure that treating cells with derivatized alkynyl ManNAc 4 results in derivatized alkyne-bearing sialyl glycoconjugates. In one aspect of the method, cells are treated with 4 at various concentrations for one to 3 days. Modified sugar analogs and probes used in this disclosure are shown in Scheme 1. Tagging of the cell surface glycoconjugates by derivatized alkynyl ManNAc is illustrated in FIGS. 2A, 2B, 2C and 2D. FIGS. 2A, 2B, 2C and 2D show analysis of cells labeled with ManNAc analogs analyzed by monitoring fluorescence intensity with flow cytometry after clicking on the biotin azide probe 6 and staining cells with fluorescein-conjugated streptavidin. […] Compared with the MFI of controls, there was significant labeling on cells treated with derivatized alkynyl ManNAc 4, even at concentrations as low as 3 micromolar (15-fold increase). […] The optimal concentration of 4 for tagging sialyl glycoconjugates falls between 25 and 50 micromolar.
(§1) Jurkat cells were cultivated (2×10^6/10 ml) in RPMI medium 1640 supplemented with 10% FCS and various concentrations of peracetylated alkynyl sugars 1, 2, or 4 or native sugars 3 or 5, for 1-3 days at 37° C. Cells were then harvested, washed with 0.1% FCS/PBS, and resuspended (10^6 cells) in 100 microliters of click reaction solution (0.1 mM biotin probe 6 or fluorogenic probe 7/0.1 mM Tris-thiazoleamine catalyst/0.1 mM CuSO4/0.5 mM sodium ascorbate, in PBS). The reaction was incubated at room temperature for 30 min, and then the cells were washed twice with 0.1% FCS/PBS. Cells treated with biotin probe 6 were subsequently stained with fluorescein-conjugated streptavidin (0.5 microgram per sample in 50 microliters of 1% FCS/PBS) for 30 min at 4° C., and washed three times with 1% FCS/PBS. Data were acquired by BD LSR II with FACSDiva software, and were analyzed by CellQuestPro software (BD Biosciences). Detection of fluorescent adduct with probe 7 was monitored with a 408 nm laser and a 440/40 bandpass filter for excitation and emission, respectively.

Jurkat cells [2] = test: Cell growth analysis after treatment with sugar analogs (cell numbers counted); assay type: cell-based, human; conditions: for toxicity (growth rate): 3 days
Experimental: FIGS. 1A, 1B, 1C and 1D show analysis of cells labeled with Fuc analogs. […] Jurkat cells were grown in the presence of 200 micromolar each Fuc analog for 3 days before cell numbers were counted. The data represent the percentage of treated cells vs. untreated cells (n=4).
It is also disclosed how treatment with exogenous Fuc analog affects cell growth rate. […] In contrast, the addition of 200 micromolar azido Fuc 2 inhibits cell growth considerably, by 65% when compared with the untreated cells. […] Such toxicity may lead to global change in expression, therefore a nontoxic probe is preferable for accurate probing of glycoconjugate expression.
as §1

Jurkat cells [3] = test: Flow cytometry of cell surface labeling with fluorogenic coumarin probe 7; assay type: cell-based, human; conditions: 200 micromolar Fuc analogs or 25 micromolar ManNAc analogs, 3 days
Source text: FIGS. 3A and 3B show tagging of cell surface glycans by derivatized alkynyl sugar analogs and subsequent labeling with probe 3-azido-7-hydroxycoumarin 7. Shown is flow cytometry analysis of Jurkat cells tagged with 200 micromolar derivatized alkynyl Fuc 1 shown in FIG. 3A or 25 micromolar alkynyl-derivatized ManNAc 4 shown in FIG. 3B for 3 days. The fluorescence intensity was detected after labeling with a coumarin probe 7. Filled histogram, cells treated with control sugar analog 3 or 5; open histogram, cell treated with alkynyl-derivatized sugar 1 or 4.
Recently, another click-activated azido-derivatized fluorescent probe, based on coumarin, was reported in the literature. In one aspect of the disclosure, the fluorogenic probe, 3-azido-7-hydroxycoumarin 7, is used as the coupling partner for alkynyl tags on labeled glycoconjugates.
Jurkat cells were cultivated (2×10^6/10 ml) in RPMI medium 1640 supplemented with 10% FCS and various concentrations of peracetylated alkynyl sugars 1, 2, or 4 or native sugars 3 or 5, for 1-3 days at 37° C. […] Data were acquired by BD LSR II with FACSDiva software, and were analyzed by CellQuestPro software (BD Biosciences). Detection of fluorescent adduct with probe 7 was monitored with a 408 nm laser and a 440/40 bandpass filter for excitation and emission, respectively.

cell extracts = test: Labeling and detection of glycoconjugates in cell extracts (SDS/PAGE, Western blot); assay type: cell-based; conditions: 200 micromolar Fuc or 25 micromolar ManNAc analogs, 3 days
Source text: Because the herein disclosed labeling system enables the identification of cellular glycoconjugates, it can also serve well in glyco-proteomic applications aimed at discovering unknown glycosylated targets for diagnostic and therapeutic purposes. […] Soluble lysate fractions are labeled with biotin probe 6, fluorogenic probe 7, or a standard azido-derivatized rhodamine probe used in proteomics before separating proteins by SDS/PAGE. […] Positive fluorescent signal was also detected in alkynyl positive protein lysate when labeled with fluorogenic 3-azido-7-hydroxycoumarin 7 and rhodamine probes (FIG. 6B and FIG. 11). […] Moreover, further processing, including a streptavidin/avidin enrichment or gel slice purification, will allow for comparative identification by proteomic mass spectrometry techniques of unknown glycoconjugates expressed at different cell status, for instance, un-differentiated verses differentiated cells, or normal verses cancer cells.
Cells were seeded at 3×10^6/8 ml per 10-cm dish and treated with control and test sugars (200 micromolar Fuc 3 vs. alkynyl derivatized Fuc 1, or 25 micromolar ManNAc 5 vs. alkynyl derivatized ManNAc 2) in growth medium at 37° C. […] Signal was developed with SuperSignal Chemiluminescent Substrate and detected by exposure to x-ray film. […] Rhodamine gels were analyzed.

Q: Which results are given for C#CCCC(=O)N[C@@H]1C(OC(C)=O)O[C@H](COC(C)=O)[C@@H](OC(C)=O)[C@@H]1OC(C)=O (some centres unmarked) [alkynyl ManNAc 4, 1,3,4,6-tetra-O-acetyl-N-4-pentynoylmannosamine]?
A: increase of MFI compared with controls (Jurkat cells [1]; 3 micromolar): 15 fold; dose dependency of glycan tagging (Jurkat cells [1]; 3 days): Dose-dependent labeling; fluorescence intensity / cell surface signal compared with control sugar-treated cells (Jurkat cells [1]; biotin probe 6/fluorescein-streptavidin): specific signal on the cell surface; toxicity (growth rate) (Jurkat cells [2]; above 100 micromolar): more toxic; toxicity to cells (summary statement) (Jurkat cells [2]; at levels required for efficient labeling): not toxic; toxicity (growth rate) (Jurkat cells [2]; between 25 and 50 micromolar): little or no toxicity; fluorescent labeling after reacting with 3-azido-7-hydroxycoumarin probe (Jurkat cells [3]): significant fluorescent labeling; labeling signal in proteins by Western blot or fluorescence (cell extracts): specific biotin-labeling signals
